Source: patent US10596152B2, “Selenium containing KGA/GDH dual inhibitors and the applications thereof” (HANGZHOU GAMMA BIOTECH CO., LTD., priority 2015, dated 2020)
“Also recorded” adds a separate entry of the source. Read-outs that look alike come from different tables or passages of the source.

What was measured:
A549 = test: Inhibition of growth of tumor cells, A549; assay type: cell-based; settings: Homo sapiens, read-out: IC50, A549
Protocol: (§1) Tumor cells (1000 cells per well) which were first treated with the corresponding compound for 3 days, and then EZMTT detection reagents were added measure the cell growth.

PC12 cells = test: Protection of PC12 nerve cells under OGD (hypoxia-ischemia); assay type: cell-based; settings: for Protection of PC12 cells under OGD: OGD hypoxia-ischemia condition
Excerpt: Then observed the growth of cellular neurite growth or neural synapse.

PC12 = test: Inhibition of growth of tumor cells, PC12; assay type: cell-based; settings: Rattus norvegicus, PC-12, 72 h, read-out: IC50, PC12
Protocol: as §1

Caki = test: Inhibition of growth of tumor cells, Caki; assay type: cell-based; settings: 72 h, read-out: IC50, Caki
Protocol: as §1

T24 (Bladder cancer) = test: Inhibition of growth of tumor cells, T24 bladder cancer; assay type: cell-based
Protocol: as §1

glutaminase = molecular target: T1, glutaminase (Homo sapiens, UniProt O94925); settings: reported; read-out: Glutaminase inhibitor IC50; cited from earlier work
T1 sequence (O94925 55-669): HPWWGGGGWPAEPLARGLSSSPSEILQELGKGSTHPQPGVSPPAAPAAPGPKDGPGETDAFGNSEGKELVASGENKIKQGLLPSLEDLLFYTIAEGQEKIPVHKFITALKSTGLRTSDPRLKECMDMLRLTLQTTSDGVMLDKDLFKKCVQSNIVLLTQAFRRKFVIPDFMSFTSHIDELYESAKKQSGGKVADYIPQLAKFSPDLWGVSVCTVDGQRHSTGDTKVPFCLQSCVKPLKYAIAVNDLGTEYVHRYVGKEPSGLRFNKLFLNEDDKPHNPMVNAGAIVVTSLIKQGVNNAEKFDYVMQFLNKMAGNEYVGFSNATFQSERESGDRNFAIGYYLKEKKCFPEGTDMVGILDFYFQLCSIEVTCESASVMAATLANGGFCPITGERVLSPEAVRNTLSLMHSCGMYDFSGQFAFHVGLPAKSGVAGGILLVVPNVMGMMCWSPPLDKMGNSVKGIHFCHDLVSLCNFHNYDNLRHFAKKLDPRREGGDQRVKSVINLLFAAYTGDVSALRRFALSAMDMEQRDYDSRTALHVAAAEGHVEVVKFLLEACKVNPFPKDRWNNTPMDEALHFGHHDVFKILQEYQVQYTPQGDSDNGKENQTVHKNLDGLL

TrxR = settings: reported; cited from earlier work
L2 (Normal cell) = test: Growth inhibition of L2 normal cells; assay type: cell-based
Protocol: as §1

normal cells [1] = test: Toxicity to normal cells
KGA [2] = molecular target: T2, KGA (Homo sapiens, UniProt O94925); test: Inhibition of KGA (glutaminase); assay type: biochemical
T2 sequence (O94925 55-669): T1 sequence (O94925 55-669)

JC82 = test: Inhibition of growth of tumor cells, JC82; assay type: cell-based; settings: 72 h, read-out: IC50, JC82
Protocol: as §1

KGA [3] = molecular target: T2, KGA; test: Binding to immobilized KGA by molecular interaction apparatus (ForteBio); settings: KGA immobilized on ForteBio chip
Excerpt: We suspected that ebselen may not inhibit glutaminase. […] Therefore, based on the crystal structure of the allosteric site of glutaminase, we synthesized a series of new symmetric and asymmetric ebselen derivatives with the aim to make an ebselen derived KGA inhibitor. In the derivatives, the benzene ring at the 2-position of the original ebselen molecule was replaced by a straight-chain or branched alkyl substituent containing at least one carbon atom, or a long chain containing thioether, or a smaller cycloalkyl group, and the newly obtained derivatives are effective in binding to the allosteric site of glutaminase. […] Moreover, these inhibitors that bind the allosteric site of glutaminase had good selectivity and higher potency for inhibition of tumor cell growth (<100 nM), and no damage to normal cells (10 μM). These inhibitors also had significant activity in an immunodeficient mouse model with no toxicity. These inhibitors had good inhibitory activity for various types of glutamine-dependent cancer cells (80-90%), especially urinary system tumors. The binding diagram of GAC tetramers and BPTES is shown in FIG. 1, wherein “mark 1” is the active site of substrate binding; and “mark 2” is an allosteric site for BPTES binding.
Our Papers published are Anal. Chem. 2017, 89: 1689, ACS Chemical Biology, 2017, 12:3003

[4] = system: glutamine dependent cancer cell; settings: reported; read-out: Inhibiting glutamine dependent cancer cell growth IC50; cited from earlier work
PC3 = test: Inhibition of growth of tumor cells, PC3; assay type: cell-based; settings: Homo sapiens, PC-3, 72 h, read-out: IC50, PC3
Protocol: as §1

T24 tumor = test: Subcutaneous T24 tumor model in nude mice; assay type: in vivo; settings: immune deficient mice, 1 mg/kg subcutaneously near tumor daily, 7 days, FIG. 6
Protocol: T24 tumor cells (1,000,000) were inoculated in nude mice, and the tumor size was 10 mm×10 mm in 24th to 27th day. Then compound hexane-(3,3′-dimethyl) thioether selen in PBS solution (200 μl) was injected subcutaneously every day near the tumor with the dosage of 1 mg/kg.

A549 tumor = test: Subcutaneous A549 tumor model in nude mice; assay type: in vivo; settings: immune deficient mice, 1 mg/kg subcutaneously near tumor daily, 7 days, FIG. 5
Protocol: A549 tumor cells (1,000,000) were inoculated in nude mice, and the tumor size was 10 mm×10 mm in 24th to 27th day. Then compound hexane-(3,3′-dimethyl) thioether selen in PBS solution (200 μl) was injected subcutaneously every day near the tumor with the dosage of 1 mg/kg.

normal cells [5] = system: normal cells
[6] = bladder cancer cell line table, read-out: T24 (Bladder cancer) IC50
[7] = bladder cancer cell line table, read-out: L2 (Normal cell) IC50
[8] = Homo sapiens, T-24, 72 h, read-out: IC50, T24
[9] = 72 h, read-out: IC50, L2 (Normal)

Question: For `O=c1c2ccccc2[se]n1-c1ccccc1` [Ebselen, 2-phenylbenzoisoselenazol-3-one, reference compound], which IC50 (A549; 72 h, A549 cells, 3 days treatment) is on record?
Answer: > 10 µM

Question: What about the “Protection of PC12 cells under OGD” value (PC12 cells) of the same molecule?
Answer: 1000 nM

Question: What about the IC50 (PC12; PC12 cells, 3 days treatment) of the same molecule?
Answer: > 10 µM

Question: And the IC50 (Caki; Caki cells, 3 days treatment)?
Answer: > 10 µM

Question: And the IC50 (T24 (Bladder cancer); Homo sapiens, T-24, 72 h, T24 cells, 3 days treatment, comparison with parent nucleus, read-out: IC50, T24)?
Answer: > 10 µM

Question: And the IC50 (T24 (Bladder cancer); [6])?
Answer: > 10 µM

Question: What about the IC50 (glutaminase) of the same molecule?
Answer: 0.009 µM

Question: What about the “Inhibition of TrxR” value (TrxR) of the same molecule?
Answer: strong inhibitors of TrxR

Question: And the IC50 (L2 (Normal cell); 72 h, L2 normal cells, 3 days treatment, read-out: IC50, L2 (Normal))?
Answer: > 10 µM

Question: And the IC50 (L2 (Normal cell); [7])?
Answer: > 10 µM

Question: And the “Toxicity to normal cells” value (normal cells [1])?
Answer: toxic to the normal cells

Question: And the “Inhibition of KGA” value (KGA [2])?
Answer: do not inhibit KGA

Question: And the IC50 (JC82; JC82 cells, 3 days treatment)?
Answer: > 10 µM

Question: What about the “Binding to KGA / glutaminase” value (KGA [3]) of the same molecule?
Answer: not bound to the KGA; also recorded: cannot directly combine toglutaminase

Question: And the IC50 [4]?
Answer: 20 µM

Question: What about the IC50 (PC3; PC3 cells, 3 days treatment) of the same molecule?
Answer: > 10 µM

Question: For “1,6- tert butyl carbonate hexamethylendiamineselen”, which “Protection of PC12 cells under OGD” value (PC12 cells) is on record?
Answer: <100 nM

Question: What about the IC50 (T24 (Bladder cancer); [6]) of the same molecule?
Answer: 10 µM

Question: What about the IC50 (L2 (Normal cell); [7]) of the same molecule?
Answer: > 10 µM

Question: Which results are given for `O=c1c2ccccc2[se]n1CCCSCCCn1[se]c2ccccc2c1=O` [Thioether selen]?
Answer: IC50 (A549; A549, 72 h): 0.5 µM; Protection of PC12 neuronal cells under OGD condition (PC12 cells; words, FIG. 7): protection of PC12 neuronal cells; IC50 (PC12): 5 µM; Inhibition of growth of T24 tumor (T24 tumor): inhibition of the growth of the T24 tumor cells; IC50 (Caki): 1 µM; IC50 (T24 (Bladder cancer); [8]): 0.5 µM; IC50 (L2 (Normal cell); [9]): > 10 µM; IC50 (JC82): 5 µM; Inhibition of growth of A549 tumor (A549 tumor): inhibition of the growth of the A549 tumor; IC50 (PC3): 2 µM

Question: Which results are given for `O=c1c2ccccc2[se]n1CCCCCCn1[se]c2c(F)cccc2c1=O` [Hexane - (2'-fluoro) selen, Hexane-(2′-fluoro) selen]?
Answer: Protection of PC12 cells under OGD (PC12 cells): <100 nM; IC50 (T24 (Bladder cancer); read-out: T24 (Bladder cancer) IC50): 0.2 µM; IC50 (L2 (Normal cell); read-out: L2 (Normal cell) IC50): > 10 µM

Question: Which “Toxicity to normal cells” value (normal cells [5]) does the source give for `O=c1c2ccccc2[se]n1CCn1[se]c2ccccc2c1=O` [ethylselen] here?
Answer: toxic to the normal cells

Question: What about the “Inhibition of TrxR” value (TrxR) of the same molecule?
Answer: strong inhibitors of TrxR

Question: What about the “Inhibition of KGA” value (KGA [2]) of the same molecule?
Answer: do not inhibit KGA

Question: Which IC50 (A549; A549, 72 h) does the source give for `Cc1cccc2[se]n(CCCCCCn3[se]c4cccc(C)c4c3=O)c(=O)c12` [Hexane-(3,3'-dimethyl) selen, Hexane-(3,3′-dimethyl) selen] here?
Answer: 0.5 µM

Question: And the IC50 (PC12)?
Answer: 5 µM

Question: What about the IC50 (Caki) of the same molecule?
Answer: 1 µM

Question: What about the IC50 (T24 (Bladder cancer); [8]) of the same molecule?
Answer: 0.2 µM

Question: What about the IC50 (L2 (Normal cell); [9]) of the same molecule?
Answer: > 10 µM

Question: What about the IC50 (JC82) of the same molecule?
Answer: 5 µM

Question: What about the “Binding to KGA / glutaminase” value (KGA [3]) of the same molecule?
Answer: distinct levels of combination with KGA enzyme

Question: What about the IC50 (PC3) of the same molecule?
Answer: 2 µM

Question: Which results are given for `O=c1c2c(F)cccc2[se]n1CCCCCCn1[se]c2cccc(F)c2c1=O` [Hexane-(2,2'-difluoro) selen, Hexane-(2,2′-difluoro) selen]?
Answer: IC50 (A549; A549, 72 h): 0.5 µM; IC50 (PC12): 5 µM; IC50 (Caki): 1 µM; IC50 (T24 (Bladder cancer); [8]): 0.01 µM; IC50 (L2 (Normal cell); [9]): > 10 µM; IC50 (JC82): 2 µM; IC50 (PC3): 2 µM
